Measured values taken from patent US7148212B2, “Process for production of steroid crystals, steroid crystals obtained thereby and pharmaceutical preparations containing them” (Schering AG, priority 2002, dated 2006).
Marks after values point to notes of the source that are not given here.

Test: Particle size distribution (Sympatec HELOS, dry dispersion)
Assay type: physicochemical
Procedure: Particle Size Distribution:
• Sympatec HELOS (H0445), dry dispersion system (RODOS), pressure 2 bar Content Uniformity Test: • Content Determination according to USP/Ph. Eur. for individual capsules after elution through HPLC with external calibration • Column: LiChrosphere 5μ RP-18 encapped, 150×3 mm • Eluent: acetonitrile/water=45/55 • Flow: 1 ml/min • Detection UV (272 nm) Active Ingredient Release: • Active ingredient release measured in 1000 mL water with 0.3% sodium dodecyl sulfate, 100 rpm • Content Determination y HPLC with external calibration • Column: LiChrosphere 5μ RP-18 encapped, 150×3 mm • Eluent: acetonitrile/water=45/55 • Flow: 1 ml/min • Detection UV (272 nm)

[1] = Example 1 microcrystals, ethyl acetate, three cycles 55/20° C., air dried
[2] = after drying on filter (ethyl acetate suspension)
[3] = after spray-drying (ethanol/water suspension)
[4] = suspension in ethanol/water (90/10) with 10% by weight microcrystalline J956, before drying
[5] = suspension in ethyl acetate with 14% by weight microcrystalline J956, before drying

CCNC(=O)ON=Cc1ccc(C2CC3(C)C(CCC3(COC)OC)C3CCC4=CC(=O)CCC4=C23)cc1 (stereo not drawn) [J956, 11β-{4-[(ethylaminocarbonyl)oximinomethyl]phenyl}-17β-methoxy-17α-methoxymethyl-estra-4,9-dien-3-one]
Particle size X10 [1]: 2.62 μm | Particle size X50 [1]: 10.4 μm | Particle size X10 [2]: 2.7 μm | Particle size X50 [2]: 10.61 μm | Particle size X90 [2]: 24 μm | Particle size X10 [3]: 2.25 μm | Particle size X50 [3]: 8.03 μm | Particle size X90 [3]: 17 μm | Particle size X100 [3]: 43 μm | Particle size X10 [4]: 2.11 μm | Particle size X50 [4]: 8.6 μm | Particle size X90 [4]: 19 μm | Particle size X100 [4]: 51 μm | Particle size X10 [5]: 2.62*** μm | Particle size X50 [5]: 10.4 μm | Particle size X90 [5]: 24 μm
